Laboratory results taken from patent US4367237A, “Prostacyclin analogues” (priority 1978, dated 1983).
Counter-ions that a name gives are not always drawn.

What was measured:
[1] = LD50 (Acute toxicity tests); settings: mouse, in vivo, iv; injected intravenously into mice
Experimental: The compounds are injected intravenously into mice.

[2] = system: women two or three days before the expected date of menstruation; assay: Clinical: beginning of menstruation; type: in vivo, human
Experimental: One pessary containing 1 mg of (13E)-(6RS,9α,11α,15S)-6,9-epithio-11,15-dihydroxyprost-13-enoic acid methyl ester (prepared as described in Example 21) was administered vaginally one to five times at one- to three-hour intervals to fifteen women aged from twenty to forty years two or three days before the expected date of menstruation.
One pessary containing 0.5 mg of (13E)-(6RS,9α,11α,15R)-6,9-epithio-11,15-dihydroxy-16,16-dimethylprost-13-enoic acid methyl ester (prepared as described in Example 21) was administered vaginally one to three times at one- to three-hour intervals to three women aged twenty or twenty-one years two or three days before the expected date of menstruation.
One to three tablets containing 0.5 mg of (13E)-(6RS,9α,11α,15S)-6,9-epithio-11,15-dihydroxyprost-13-enoic acid methyl ester (prepared as described in Example 17) were administered orally to five women aged from twenty to twenty-two years two or three days before the expected date of menstruation.

[3] = system: women in the expired stage of pregnancy; assay: Clinical: induction of labour; type: in vivo, human; settings: pessary 0.2 mg, vaginal, one to three times at one- to three-hour intervals; five women
Experimental: One pessary containing 0.2 mg of (13E)-(6RS,9α,11α,15S)-6,9-epithio-11,15-dihydroxyprost-13-enoic acid methyl ester (prepared as described in Example 21) was administered vaginally one to three times at one- to three-hour intervals to five women aged from twenty to forty years in the expired stage of pregnancy.

[4] = system: human blood platelet aggregation; settings: J.C.S. Chem. Comm., 375 (1978); cited from earlier work
diarrhoea = assay: Diarrhoea (Diarrhoea-producing activity); type: in vivo; settings: diarrhoea in 50% of mice, oral
Source text: (§1) The results of standard laboratory tests are shown below in Table 1, wherein the various activities are shown relative to PGE1.
The compounds produce diarrhoea in 50% of mice by oral administration.

gastric acid secretion = assay: GSI (Inhibitory activity on gastric acid secretion); type: in vivo; settings: increase in gastric acid pH from 2.0-2.5 to at least 4.0 in 50% of pentagastrin-treated rats, perfused intravenously
Source text: as §1
The compounds produce an increase in gastric acid pH from 2.0-2.5 to at least 4.0 in 50% of pentagastrin-treated rats when perfused intravenously.

[5] = system: women in the early stages of pregnancy; assay: Clinical: termination of pregnancy; type: in vivo, human
Experimental: One pessary containing 1 mg of (13E)-(6RS,9α,11α,15S)-6,9-epithio-11,15-dihydroxyprost-13-enoic acid methyl ester (prepared as described in Example 21) was administered vaginally two to five times at one- to three-hour intervals to fifteen women aged from twenty to forty years in the early stages of pregnancy.
One to three tablets containing 0.25 mg of (13E)-(6RS,9α,11α,15R)-6,9-epithio-11,15-dihydroxy-16,16-dimethylprost-13-enoic acid methyl ester (prepared as described in Example 17) were administered orally one to five times to seven women aged from twenty-five to thirty years in the early stages of pregnancy.

[6] = system: isolated cat coronary artery; settings: J.C.S. Chem. Comm., 375 (1978); cited from earlier work
blood pressure = assay: BP (Hypotensive activity); type: in vivo; settings: intravenous, allobarbital-anaesthetised dog
Source text: as §1
The compounds produce falls in blood pressure when administered intravenously to the allobarbital-anaesthetised dog.

uterine contraction = assay: UCA (Uterine contraction activity); type: in vivo, pregnant female rat; settings: for UCA (Uterine contraction activity), relative to PGE1: pregnant female rat, intravenous, 20th day of gestation
Source text: as §1
The compounds stimulate uterine contraction in the pregnant female rat when administered intravenously on the 20th day of gestation.
Moreover, other compounds of the present invention [prepared as hereafter described in the Examples] other than the above compounds for which results are given in Table 1 stimulate uterine contraction when administered intravenously to the pregnant female rat on the 20th day of gestation at doses of 0.2-100 μg/kg animal body weight.

stress ulceration = assay: GUI (Inhibitory activity on gastric ulceration), stress ulceration; type: in vivo, rat; settings: stress ulceration of rats, oral, water bath 19° C. for 6 hours
Experimental: as §1
The compounds produce an inhibition of stress ulceration by oral administration in the stress ulceration of rats produced according to the method of Takagi and Okabe [Jap. J. Pharmc., 18, 9-18 (1968)], i.e. by soaking rats in a water bath at 19° C. for 6 hours.

[7] = system: platelet-rich plasma of rats; assay: PAI (Inhibitory activity on blood platelet aggregation), adenosine diphosphate-induced; type: cell-based, rat; settings: 50% inhibition of ADP-induced aggregation
[8] = system: blood platelet aggregation of the human; settings: cited from earlier work
artery = settings: cited from earlier work
blood platelets = settings: cited from earlier work

Compound | LD50 [1] [mg/kg] | activity on human blood platelet aggregation [4] | Diarrhoea (Diarrhoea-producing activity), relative to PGE1 (diarrhoea) | GSI (Inhibitory activity on gastric acid secretion), relative to PGE1 (gastric acid secretion) | activity on isolated cat coronary artery [6] | BP (Hypotensive activity), relative to PGE1 (blood pressure) | UCA (Uterine contraction activity), relative to PGE1 (uterine contraction) | GUI (Inhibitory activity on gastric ulceration), relative to PGE1 (stress ulceration) | PAI (Inhibitory activity on blood platelet aggregation), relative to PGE1 [7] | also measured
CCCCC[C@H](O)/C=C/[C@@H]1[C@H]2CC(CCCCC(=O)OC)S[C@H]2C[C@H]1O (mixture of isomers) [A, (13E)-(6RS,9α,11α,15S)-6,9-epithio-11,15-dihydroxyprost-13-enoic acid methyl ester] | 100 | inhibitory activity on human blood platelet aggregation | 0.072 | < 0.1 | vasoconstricting activity on isolated cat coronary artery | 0.2 | 11.5 | < 0.5 | 0.03 | beginning of menstruation ([2]; one to three tablets 0.5 mg, oral, five women): confirmed in all the cases; beginning of menstruation ([2]; pessary 1 mg, vaginal, one to five times, fifteen women): confirmed in all the cases; induction of labour [3]: confirmed in all the cases; termination of pregnancy ([5]; pessary 1 mg, vaginal, two to five times, fifteen women): confirmed in all the cases
CCCCC[C@H](O)/C=C/[C@@H]1[C@H]2CC(CCCCC(=O)O)S[C@H]2C[C@H]1O (mixture of isomers) [B, (13E)-(6RS,9α,11α,15S)-6,9-epithio-11,15-dihydroxyprost-13-enoic acid] |  | inhibitory activity on human blood platelet aggregation | < 0.1 | < 0.1 | vasoconstricting activity on isolated cat coronary artery | 0.2 | 10 | < 0.5 | 0.038 | stimulatory activity on uterine contraction (in words) (uterine contraction; rat, in vivo): selective strong stimulatory activity on uterine contraction
CCCCC(C)(C)[C@H](O)/C=C/[C@@H]1[C@H]2CC(CCCCC(=O)OC)S[C@H]2C[C@H]1O (mixture of isomers) [D, (13E)-(6RS,9α,11α,15R)-6,9-epithio-11,15-dihydroxy-16,16-dimethylprost-13-enoic acid methyl ester] | 25 |  | 0.095 | < 0.3 |  | < 0.1 | 23.1 | < 0.5 | 0.006 | beginning of menstruation ([2]; pessary 0.5 mg, vaginal, one to three times, three women): confirmed in all the cases; termination of pregnancy ([5]; one to three tablets 0.25 mg, oral, one to five times, seven women): confirmed in all the cases
CCCC[C@H](C)[C@H](O)/C=C/[C@@H]1[C@H]2CC(CCCCC(=O)OC)S[C@H]2C[C@H]1O (mixture of isomers) [E, (13E)-(6RS,9α,11α,15S,16S)-6,9-epithio-11,15-dihydroxy-16-methylprost-13-enoic acid methyl ester] |  |  | 0.514 | < 0.3 |  | 0.55 | 27.3 | < 0.5 | 0.21 | 
CCCCC1([C@H](O)/C=C/[C@@H]2[C@H]3CC(CCCCC(=O)OC)S[C@H]3C[C@H]2O)CCC1 (stereo partly drawn) [C, (13E)-(6RS,9α,11α,15R)-6,9-epithio-11,15-dihydroxy-15-(1-butylcyclobutyl)-16,17,18,19,20-pentanorprost-13-enoic acid methyl ester] | 100 |  | < 0.02 | 0.3 |  | < 0.1 | 15.8 | < 0.5 | 0.011 | 
CCCCC[C@H](O)/C=C/[C@H]1[C@H](O)CC(=O)[C@@H]1CCCCCCC(=O)O [PGE1, reference compound] |  |  | 1 | 1 |  | 1 | 1 |  |  | 
CCCCC[C@H](O)/C=C/[C@@H]1[C@H]2C/C(=C/CCCC(=O)OC)O[C@H]2C[C@H]1O [PGI2 methyl ester, reference compound] |  |  | < 0.1 |  |  | 20 | 0.5 |  | 85 | 
CCCCC[C@H](O)/C=C/[C@@H]1[C@H]2C/C(=C/CCCC(=O)O)O[C@H]2C[C@H]1O [PGI2, (5Z,13E)-(9α,11α,15S)-6,9-epoxy-11,15-dihydroxyprosta-5,13-dienoic acid] |  |  |  |  |  |  |  |  |  | inhibition of arachidonic acid-induced blood platelet aggregation [8]: strongly inhibits; activity on the artery (artery): relaxing activity on the artery
CCCCC[C@H](O)/C=C/[C@@H]1[C@H]2CC(CCCCC(=O)O)S[C@H]2C[C@H]1O (stereo partly shown) [sodium salt] |  | inhibitory activity on human blood platelet aggregation |  |  | vasoconstricting activity on isolated cat coronary artery |  |  |  |  | 
CCCCC[C@H](O)/C=C/[C@H]1O[C@H]2C[C@H](O2)[C@@H]1C/C=C\CCCC(=O)O [thromboxane A2] |  |  |  |  |  |  |  |  |  | activity on the artery (artery): contracting activity on the artery; activity on blood platelets (blood platelets): aggregating activity on blood platelets
